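Assay format: 96-well plates, 48-hour exposure. GI50 is the concentration that inhibits growth by half. The concentration for full growth arrest is given as TGI.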
Experiments:
Assay in all cases: NCI anticancer screen, dose series, 48 h
ACHN renal = system: ACHN renal
HS 578T breast = system: HS 578T breast
786-0 renal = system: 786-0 renal
NCI-H460 lung = system: NCI-H460 lung
MDA-MB-231 breast = system: MDA-MB-231 breast
SW-620 colon = system: SW-620 colon
NCI/ADR-RES ovarian = system: NCI/ADR-RES ovarian
UACC-62 melanoma = system: UACC-62 melanoma
SK-MEL-5 melanoma = system: SK-MEL-5 melanoma
PC-3 prostate = system: PC-3 prostate

Row | SMILES | TGI (ACHN renal) [µM] | TGI (HS 578T breast) [µM] | TGI (786-0 renal) [µM] | TGI (NCI-H460 lung) [µM] | TGI (MDA-MB-231 breast) [µM] | TGI (SW-620 colon) [µM] | TGI (NCI/ADR-RES ovarian) [µM] | TGI (UACC-62 melanoma) [µM] | TGI (SK-MEL-5 melanoma) [µM] | TGI (PC-3 prostate) [µM] | GI50 (ACHN renal) [nM] | GI50 (HS 578T breast) [nM] | GI50 (786-0 renal) [nM] | GI50 (NCI-H460 lung) [nM] | GI50 (MDA-MB-231 breast) [nM] | GI50 (SW-620 colon) [nM] | GI50 (NCI/ADR-RES ovarian) [µM] | GI50 (UACC-62 melanoma) [nM] | GI50 (SK-MEL-5 melanoma) [nM] | GI50 (PC-3 prostate) [nM]
1 | COc1cccc(/C=C2\N=C(c3ccccc3)OC2=O)c1 | > 100 | > 100 | > 100 | > 100 | > 100 | > 100 | 90.6 | > 100 | > 100 | > 100 |  |  |  |  |  |  |  |  |  | 
2 | CCn1c(-c2nonc2N)nc2ccccc21 | > 25 | > 25 | > 25 | > 25 | > 25 | > 25 | > 25 | > 25 | > 25 | > 25 | > 25000 | > 22300 | > 25000 | > 25000 | > 25000 | > 25000 | > 25 | > 25000 | > 25000 | > 25000
3 | CCCN1C(=O)/C(=C/c2ccc(SC(F)(F)F)cc2)SC1=Nc1ccc(OC)cc1 | 11.8 | 33.4 | 25.6 | > 50 | 19.5 | > 50 | 42.4 | 25.4 | > 50 | > 50 | 5530 | 14000 | 9560 | 12100 | 5930 | 38600 | 11 | 10000 | 17300 | 15600
4 | Clc1ccc2c(NCCNc3nc(N4CCOCC4)nc4ccccc34)ccnc2c1 | 3.49 | 7.71 | 4.95 | 4.16 | 3.63 | 10.8 | 15.5 | 3.75 | 3.15 | 17.1 | 1750 | 2580 | 1790 | 2030 | 1560 | 2970 | 3.73 | 1940 | 1750 | 4500
5 | CC1(C)N=C(N)N=C(N)N1c1ccc(CCCC(=O)Nc2ccc(S(=O)(=O)F)cc2)cc1 | > 100 | > 100 | > 100 | > 100 | > 100 | > 100 | > 100 | > 100 | 28.1 | > 100 | 58700 | > 100000 | 4970 | 816 | 45700 | 1990 | > 100 | 2240 | 3200 | 469
6 | COc1cc2ncn(-c3cc(OCc4ccccc4C(F)(F)F)c(C(N)=O)s3)c2cc1OC | > 25 | > 8.59 | 22.5 | > 25 | > 25 | > 25 | > 25 | > 8.39 | > 25 | > 25 | 2790 | 576 | 1560 | 101 | 270 | 82.2 | 0.15 | 168 | 106 | 214
7 | COc1cc2c(c(OC)c1OC)-c1cc(I)c(O)cc1[C@@H](NC(C)=O)CC2 | > 100 |  | > 100 | 4.99 |  | > 100 | > 20.3 | > 100 | 0.244 | > 100 | 383 | 29 | 61.4 | 35.6 | 85.9 | 39 | 0.681 | 44.8 | 35.8 | 39.5
8 | CN1C2C=CC(=O)C1C1C(=O)N(c3ccccc3)C(=O)C12 (stereo not drawn) | 20.9 | 22.3 | 15.4 | 28.9 | 37.8 | 10.7 | 95.3 | 24.3 | 24.3 | 47.3 | 6930 | 4550 | 3570 | 12700 | 15300 | 3090 | 17 | 11500 | 11800 | 5800
9 | CCN(CC)c1ccc(/C=N/NC(=O)Cc2ccc(Nc3ccnc(C(F)(F)F)c3)cc2)c(O)c1 | > 26.9 | > 48.9 | > 100 | > 39.7 | > 100 | > 100 | > 100 | 7.86 | 3.86 | > 100 | 399 | 1950 | 626 | 351 | 842 | 729 | 1.19 | 480 | 490 | 1850
10 | O=c1c(I)c[nH]cc1I | > 100 | > 100 | > 100 | > 100 | > 100 | > 100 | > 100 | > 100 | > 100 | > 100 | > 100000 | > 100000 | > 100000 | > 100000 | > 100000 | > 100000 | > 100 | > 100000 | > 100000 | > 100000
11 | CC[C@H](C)[C@H](NC(=O)[C@H]1CCCCN1C)C(=O)N(C)[C@H](CCc1nc(C(=O)N[C@@H](Cc2ccccc2)C[C@H](C)C(=O)O)cs1)C(C)C | > 25 | > 25 | > 25 | > 25 | > 25 | > 25 | > 25 | > 25 | 3.24 | > 25 | 1370 | 123 | 476 | 164 | 596 | 124 | > 25 | 86.1 | 87.5 | 367
12 | Cn1c(=O)c(-c2ccccc2Cl)cc2cnc(NC3CCOCC3)nc21 | > 25 | > 25 | > 25 | > 25 | > 25 | > 25 | > 25 | > 25 | > 25 | > 25 | 4640 | 9120 | 13100 | 11100 | 7690 | 14800 | 12.9 | 6370 | 11000 | 21400
13 | COc1ccc2nc3ccccc3c(NCCNCCO)c2c1 | 21.1 | 3.85 | 7.55 | 1.92 | 3.72 | 3.66 | > 89 | 2.99 | 2.35 | 3.79 | 478 | 688 | 649 | 341 | 932 | 362 | 5.04 | 1090 | 1050 | 554

— PubChem BioAssay (NCI)
